One test has as its system reagin-mediated rat Passive Cutaneous Anaphylaxis (PCA). Description: Reagin-mediated rat Passive Cutaneous Anaphylaxis (PCA) screening test. The format is in vivo, Sprague-Dawley rats. Conditions: iv, 1-5 minutes prior to antigen challenge (DSCG: at the time of antigen challenge), read-out: Rat PCA Test ID50, i.v. (dose of compound that inhibits 50% of the response). How it is done: The reagin-mediated rat Passive Cutaneous Anaphylaxis (PCA) screening test used to evaluate the present compounds is generally regarded as one of the best animal models for use in predicting the antiallergy activity of test compounds in man. Briefly, the method consists of passive sensitization of skin sites on the test animals with reaginic antibodies followed after 24 hours by administration of the test drug and antigen challenge. The allergic response is measured by use of Evans' blue dye and is evaluated by the spot diameter at the injection side. Details of the test are provided below.
A substituted ovalbumin antigen is used both as immunogen and challenging antigen. The antigen is prepared as follows: 500 mg. ovalbumin (EA) and 500 mg. K2 CO3 are dissolved in 25 ml. distilled H2 O and stirred at room temperature for 5 minutes. Five hundred (500) mg. dinitrobenzene sulfonic acid, Na^+ salt, (previously recrystallized from hot absolute ethanol) is then added slowly with continued stirring. The reaction mixture is then immediately placed in the dark and allowed to proceed for 2 hours with constant stirring. After 2 hours the mixture is placed in suitable dialysis tubing and dialyzed against 5 changes (4 liters each) of distilled H2 O at 5° C. After dialysis the product is lyophilized and stored at room temperature in a brown or amber container. The antigen obtained will appear as a light yellow, amorphous solid which is very soluble in water or saline. It is designated as DNP denatured ovalbumin (DNP-d EA).
Adult, male Sprague-Dawley rats are used as a source or reagin-rich antisera for the PCA model. Immunization is by a combination of DNP-d EA on Al(OH)3 gel and B. pertussis vaccine. Preparation of the DNP-d EA - gel immunogen is as follows: Dissolve the DNP-d EA in TBS so as to give a concentration of 10 mg./ml. Slowly add 1 ml. of this solution to 10 ml. Al(OH)3 gel (10 mg. solids/ml.) with constant stirring at room temperature. Stir the mixture an additional 30 minutes to insure a uniform adsorption of antigen on gel.
The resulting preparation is then used in combination with phase I B. pertussis vaccine to immunize male S/D rats as follows: For each rat administer 0.1 ml. DNP-d EA - gel suspension intramuscularly in each hind leg (200 μg DNP-d EA and 2 mg. gel total dose). Follow these injections by the intraperitoneal administration of 1.0 ml. B. pertussis vaccine (10-20 × 10^9 organisms). The use of light ether anesthesia during this procedure is recommended to insure proper intramuscular and intraperitoneal injections. Nine days following immunization (but no longer than 10) the animals are exsanguinated by cardiac puncture or abdominal aorta cannulation under ether or pentobarbital anesthesia. The collected whole blood is allowed to clot, the serum separated by centrifugation and the individual serum samples stored frozen until assayed for IgE content.
Individual serum samples should be screened for reaginic antibody concentration before being pooled with other sera, as not all rats respond to immunization procedures with reagin production. A 1:50 saline dilution of serum from each immunized rat is used for this purpose. Intradermal injections of 0.05 ml. of the diluted sera are made in the shaven backs of two small female recipient rats, 100-120 gms. Several serum samples can be tested simultaneously in recipient animals. After a 24 to 48 hour latent period antigen challenge is accomplished by intravenous administration to each rat of 1 mg. DNP-d EA in 0.5 ml. 0.5% Evans' blue dye in saline. Sera which show positive PCA reactions at the 1:50 dilution, as measured 20 to 30 minutes post-challenge are pooled, dispensed in small aliquots and stored at -70° C. or lower until used. Negative sera may be discarded.
The IgE titer of the antisera pool should then be determined. […]
`CCc1cn2c(=O)c(-c3nnn[nH]3)cnc2c2ccccc12` [Example 25, 7-Ethyl-3-(1H-tetrazol-5-yl)-4H-pyrimido[2,1-a]isoquinol-4-one]: the ED50 came to 0.009 mg/kg.
Take `O=C(O)c1cnc2c3ccccc3c(O)cn2c1=O` [Example 5, 7-Hydroxy-4-oxo-4H-pyrimido[2,1-a]isoquinoline-3-carboxylic Acid]: the ED50 is about 1.7 mg/kg.
Same read-out and setting: next, `CCc1cn2c(=O)c(C(=O)O)cnc2c2ccccc12` [Example 17A, 7-ethyl-4-oxo-4H-pyrimido[2,1-a]isoquinoline-3-carboxylic Acid]: about 0.048 mg/kg; `O=c1c(-c2nnn[nH]2)cnc2c3ccccc3ccn12` [Example 8, 3-(1H-Tetrazol-5-yl)-4H-pyrimido[2,1-a]isoquinol-4-one]: 0.04 mg/kg.

The same test, now with this note: po, 10 minutes prior to antigen challenge, Table 1, read-out: Rat PCA Test ID50, p.o. (dose of compound that inhibits 50% of the response).
`CCC1Cn2c(ncc(-c3nnn[nH]3)c2=O)-c2ccccc21` (racemic) [Example 23, (±)-7-Ethyl-6,7-dihydro-3-(1H-tetrazol-5-yl)-4H-pyrimido[2,1-a]isoquinol-4-one]: the ED50 turned out to be 0.1 mg/kg.
Same read-out and setting: with `CCOC(=O)c1cnc2n(c1=O)CCc1cc(OC)c(OC)cc1-2` [Example 10C, ethyl 6,7-Dihydro-9,10-dimethoxy-4-oxo-4H-pyrimido[2,1-a]isoquinoline-3-carboxylate] the figure was about 0.37 mg/kg; with `CC(C)C(=O)Oc1ccc2c(c1)-c1ncc(C(=O)O)c(=O)n1CC2` [Example 21, 10-Isobutyryloxy-6,7-dihydro-4-oxo-4H-pyrimido[2,1-a]isoquinoline-3-carboxylic Acid], about 0.5 mg/kg; with `CCOC(=O)c1cnc2n(c1=O)CC(CC=O)c1ccc(OC)cc1-2` (racemic) [Example 22 (CH2 CHO), Ethyl (±)-7-Formylmethyl-6,7-dihydro-10-methoxy-4-oxo-4H-pyrimido[2,1-a]isoquinoline-3-carboxylate], about 20 mg/kg.
Still for that read-out and setting: next, `CCOC(=O)c1cnc2n(c1=O)CCc1cc(OC)ccc1-2` [Example 9, Ethyl 6,7-Dihydro-9-methoxy-4-oxo-4H-pyrimido[2,1-a]isoquinoline-3-carboxylate]: about 13 mg/kg; `COc1cc2c(cc1OC)-c1ncc(C(=O)O)c(=O)n1CC2` [Example 11D, 6,7-dihydro-9,10-dimethoxy-4-oxo-4H-pyrimido[2,1-a]isoquinoline-3-carboxylic Acid]: about 0.31 mg/kg; `O=C(O)c1cnc2n(c1=O)CCc1cc(O)c(O)cc1-2` [Example 20, 6,7-Dihydro-9,10-dihydroxy-4-oxo-4H-pyrimido[2,1-a]isoquinoline-3-carboxylic Acid]: about 0.077 mg/kg.
Same read-out and setting: with `COc1ccc2c(c1)CCn1c-2ncc(C(=O)O)c1=O` [Example 11A, 6,7-dihydro-9-methoxy-4-oxo-4H-pyrimido[2,1-a]isoquinoline-3-carboxylic Acid] the figure was 2.6 mg/kg; with `O=C(O)c1cnc2n(c1=O)CCc1ccc(O)cc1-2` [Example 19, 6,7-Dihydro-10-hydroxy-4-oxo-4H-pyrimido[2,1-a]isoquinoline-3-carboxylic Acid], about 1.2 mg/kg.

Still in this test, the particulars now being: po, 10 minutes prior to antigen challenge, Table II and its footnote, read-out: Rat PCA Test ID50, p.o. (dose of compound that inhibits 50% of the response).
For the compound `CCc1cn2c(=O)c(-c3nnn[nH]3)cnc2c2ccccc12` [Example 25, 7-Ethyl-3-(1H-tetrazol-5-yl)-4H-pyrimido[2,1-a]isoquinol-4-one], the ED50 amounted to 0.04 mg/kg.
`C=CCc1cn2c(=O)c(C(=O)OCC)cnc2c2cc(OC)ccc12` [Example 14, Ethyl 7-Allyl-10-methoxy-4-oxo-4H-pyrimido[2,1-a]isoquinoline-3-carboxylate]: the ED50 is over 5 mg/kg.
On the same count and under the same terms, next, `CCOC(=O)c1cnc2c3ccccc3c(CC)cn2c1=O` [Example 13B, ethyl 7-Ethyl-4-oxo-4H-pyrimido[2,1-a]isoquinoline-3-carboxylate]: about 5 mg/kg; `COc1cc2ccn3c(=O)c(C(=O)O)cnc3c2cc1OC` [Example 17B, 9,10-dimethoxy-4-oxo-4H-pyrimido[2,1-a]isoquinoline-3-carboxylic Acid]: about 0.01 mg/kg.
Same read-out and setting: next, `CCOC(=O)c1cnc2c3ccccc3ccn2c1=O` [Example 1, Ethyl 4-Oxo-4H-pyrimido[2,1-a]isoquinoline-3-carboxylate]: over 5 mg/kg.

The values above are taken from patent US4127720A, “Pyrimido[2,1-a]isoquinoline derivatives having antiallergy activity” (priority 1977, dated 1978).
